Measurements as given in PubChem BioAssay (NCI).
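All cell lines were grown in 96-well plates and treated with compound for 48 hours. Definition used: TGI = concentration required for complete inhibition of growth.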 Where a SMILES comes first, the peptide text is derived from it. [ ]: non-standard residue; d: D form. The star is where a group is joined. ξ: configuration not given here. NMeY = CN[C@@H](Cc1ccc(O)cc1)C(=O)O; Cbz = O=C(OCc1ccccc1)*; ξA = CC(N)C(=O)O

What was measured:
Test in all cases: growth of human tumour cells (NCI), 48 h
DU-145 prostate = test system: DU-145 prostate
UACC-257 melanoma = test system: UACC-257 melanoma
NCI-H522 lung = test system: NCI-H522 lung
ACHN renal = test system: ACHN renal
RPMI-8226 leukemia = test system: RPMI-8226 leukemia
HCT-15 colon = test system: HCT-15 colon
SN12C renal = test system: SN12C renal
SK-MEL-28 melanoma = test system: SK-MEL-28 melanoma
OVCAR-5 ovarian = test system: OVCAR-5 ovarian
MCF7 breast = test system: MCF7 breast

Row | Compound | TGI (DU-145 prostate) [µM] | TGI (UACC-257 melanoma) [µM] | TGI (NCI-H522 lung) [µM] | TGI (ACHN renal) [µM] | TGI (RPMI-8226 leukemia) [µM] | TGI (HCT-15 colon) [µM] | TGI (SN12C renal) [µM] | TGI (SK-MEL-28 melanoma) [µM] | TGI (OVCAR-5 ovarian) [µM] | TGI (MCF7 breast) [µM]
1 | C=C1N(C)c2ccc(S(=O)(=O)c3ccc4c(c3)C(C)(C)C(=C)N4C)cc2C1(C)C | > 100 | > 100 | 58.7 | > 100 | 35.5 | > 100 | > 100 | > 100 | > 100 | > 100
2 | COc1ccc(C[C@@H](C(=O)N[C@@H](C)C(N)=O)N(C)C(=O)[C@@H]2CCCN2C(=O)[C@H](CC(C)C)NC(=O)C(C)NC(=O)OCc2ccccc2)cc1 (stereo partly drawn) (Cbz-[ξA]LP[NMeY](Me)A-NH2) | > 100 | – | > 100 | > 100 | > 100 | > 100 | > 100 | > 100 | > 100 | > 100
3 | COc1ccc2nc3ccc(OC)cc3c(S(=O)Cc3ccccc3)c2c1 (stereo not drawn) | 5.85 | 20.9 | 2.63 | 15.2 | 6.6 | > 48.9 | 21.3 | 27.2 | 35.3 | –
4 | O=C1C(Cl)C(c2ccc(O)cc2)N1n1cnc2ccccc2c1=O (stereo not drawn) | – | > 100 | 32.6 | 25.6 | 57.7 | > 100 | > 100 | 70.2 | > 100 | –
5 | O=C(Nc1ccccc1)OCCN=c1c2ccccc2ccc2ccccc12 | > 100 | 42.2 | – | 61.8 | 42.2 | > 100 | > 100 | 60.9 | > 100 | –
6 | Cc1cc2c(cc1Cl)SC(NNCCO)=NS2(=O)=O | > 100 | > 100 | – | > 100 | > 100 | > 100 | – | > 100 | – | > 100
7 | Cc1cc(C)c(NS(=O)c2ccc(Cl)cc2)c(C)c1 (stereo not drawn) | > 100 | > 100 | – | > 100 | > 100 | > 100 | > 100 | > 100 | > 100 | > 100
8 | O=c1[nH][nH]c(=O)n1Cc1ccccc1 | > 100 | > 100 | > 100 | – | > 100 | > 100 | > 100 | > 100 | > 100 | > 100
9 | COc1ccc2nc3c4c(nccc4c2c1)-c1ncccc1C3=O | 0.023 | 0.196 | – | 0.174 | 0.236 | 0.069 | 0.298 | 0.655 | 2.1 | 0.179
10 | Cc1cc(NS(=O)(=O)c2ccc(NO)cc2)no1 | > 100 | > 100 | – | > 100 | – | > 100 | 43 | > 100 | > 100 | 47.1
11 | CN1CCCS/C1=C1/SC(=S)N(c2ccccc2)C1=O | – | > 100 | > 100 | > 100 | > 100 | > 100 | > 100 | > 100 | > 100 | –
12 | COC(=O)c1cc(/C=C/C(=O)Cc2ccccc2)cn1S(=O)(=O)c1ccccc1 | > 100 | > 100 | > 100 | > 100 | – | > 100 | > 100 | – | > 100 | > 100
13 | O=c1[nH]c(=O)n([C@H]2C[C@@H](CO)[C@@H](O)C2)cc1I | – | > 100 | > 100 | > 100 | > 100 | > 100 | > 100 | > 100 | > 100 | –
14 | C1=NN2C(c3ccccc3)=NOC2C2C(c3ccccc3)=NOC12 (stereo not drawn) | > 100 | > 100 | > 100 | > 100 | – | > 100 | – | – | > 100 | > 100
15 | COC(=O)C(=O)C(C(=O)OC)C(=O)C(=O)Nc1cc(Cl)c(C)cc1S(=O)(=O)O (stereo not drawn) | – | > 100 | > 100 | > 100 | – | > 100 | > 100 | > 100 | > 100 | –
16 | N#Cc1c(-c2ccccc2)cn(C(=O)c2ccccc2)c1N | > 100 | – | > 100 | > 100 | > 100 | > 100 | > 100 | > 100 | > 100 | > 100
17 | Cn1c2ncccc2n2c(=O)cc(O)cc12 | > 100 | > 100 | > 100 | > 100 | > 100 | > 100 | – | > 100 | > 100 | > 100
18 | O=c1ccn(C/C=C/c2ccccc2)c(=S)n1C/C=C/c1ccccc1 | > 100 | > 100 | > 100 | > 100 | – | > 100 | > 100 | > 100 | > 100 | > 100
19 | COc1nc(=O)[nH]c2c1C(c1ccc([N+](=O)[O-])cc1)c1c(OC)nc(=O)[nH]c1O2 | > 100 | > 100 | > 100 | > 100 | > 100 | > 100 | > 100 | > 100 | > 100 | –
20 | Cc1c(-c2coc(-c3ccc([N+](=O)[O-])cc3)n2)c(=O)n(-c2ccccc2)n1C | – | > 100 | > 100 | > 100 | > 100 | > 100 | > 100 | > 100 | > 100 | –
21 | N#CCCC(C#N)(C#N)CCC#N | – | > 100 | > 100 | > 100 | > 100 | > 100 | > 100 | > 100 | – | –
22 | CC(C)N(C(C)C)S(=O)(=O)CC12CCC(C/C1=N\O)C2 (stereo not drawn) | > 100 | > 100 | > 100 | > 100 | – | > 100 | > 100 | > 100 | > 100 | > 100
23 | CCOC(=O)c1c2ccccc2n2c(=O)n(-c3ccc(OC)cc3)nnc12 | > 100 | > 100 | – | > 100 | > 91.1 | > 100 | > 100 | > 100 | > 100 | > 67.9
